Where two headings read alike, the source gives them in different places.
How the values were obtained:
[1] = molecular target: T1, CDK2/Cyclin A (Homo sapiens, UniProt P24941); experiment: Enzymatic assay for CDK2 (FRET based LANCE Ultra kinase assay); type: biochemical
T1 construct: purchased Invitrogen PV6290
Method in brief: (§1)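 Each CDK complex ([…]) phosphorylated 68 nM ULight-MBP peptide with ATP at Km for 60 min at 23° C., against 8 compound doses (4-fold dilutions). EDTA/Eu-anti-phospho-MBP detection, 60 min, then TR-FRET emission at 615 and 665 nm.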

[2] = tested on: OVCAR-3; experiment: Cellular OVCAR-3 viability assay (CellTiter-Glo, 72 hours); type: cell-based; conditions: Homo sapiens
From the text: Human T-cell acute lymphoblastic leukemia cell line, MOLT-4 (ATCC, Cat #CRL-1582), Human multiple myeloma cell line, RPMI-8226 (Invitrogen, Cat #22400-089) and MM.1S (ATCC, Cat #CRL-2974), NSCLC (Non-small cell lung cancer) cell line H460 (ATCC, Cat #HTB-177), Human colon colorectal carcinoma cell line HCT116 (ATCC, Cat #CCL-247), Human acute monocytic leukemia cell line MV4-11 (ATCC, Cat #CRL-9591), OVCAR-3 (ATCC, Cat #HTB-161) and A2780 (ECACC, Cat #93112519) were obtained from ATCC. Cells were grown in RPMI-1640 media (Invitrogen, Cat #22400-089) supplemented with 10% FBS (Invitrogen, Cat #10099141) and 1% penicillin/streptomycin (Invitrogen, Cat #15070063) and cultured at 37° C., 5% CO2 in a humidified chamber. All cell lines were routinely tested for mycoplasma.
The effect of the CDK7 inhibitor to inhibit the growth of target cancer cells was evaluated through the 72 hours time period of viability assay. Briefly, the candidate cell line ware plated in 96 well plate at the following density of cells respectively. 1×10^4 cells/well for MOLT-4, RPMI-8226, MV4-11 and MM.1S, 5×10^3 for H460, HCT116 and OVCAR-3 and IX 10^3 for A2780. After 24 hours, the cells were treated with various concentrations of the compound (ranging from 0.0015 uM to 10 uM). DMSO solvent without compound served as a control and final DMSO concentration less than 0.1%. After 72 hours of incubation at 37° C., 5% CO2 incubator, cells were analyzed for the viability using the CellTiter-Glo Luminescent Cell Viability Assay (Promega, Cat #G7570). All viability assays were performed in duplicate and Luminescence was read using an Envision (Perkin Elmer, USA). Data was analyzed using XLfit software.

[3] = tested on: H460; experiment: Cellular H460 viability assay (CellTiter-Glo, 72 hours); type: cell-based; conditions: Homo sapiens, NCI-H460
Method in brief: (§2)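 72 h treatment, 37 °C, 5% CO2; DMSO ctrl, final <0.1%; CellTiter-Glo luminescence; n=2.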

[4] = tested on: MV4-11; experiment: Cellular MV4-11 viability assay (CellTiter-Glo, 72 hours); type: cell-based; conditions: Homo sapiens
Method in brief: as §2

[5] = molecular target: T2, CDK7/Cyclin H/MNAT1 (Homo sapiens, UniProt P50613); experiment: Enzymatic assay for CDK7 (FRET based LANCE Ultra kinase assay); type: biochemical
T2 construct: purchased Invitrogen PR6749B
T2 sequence (P50613 whole entry): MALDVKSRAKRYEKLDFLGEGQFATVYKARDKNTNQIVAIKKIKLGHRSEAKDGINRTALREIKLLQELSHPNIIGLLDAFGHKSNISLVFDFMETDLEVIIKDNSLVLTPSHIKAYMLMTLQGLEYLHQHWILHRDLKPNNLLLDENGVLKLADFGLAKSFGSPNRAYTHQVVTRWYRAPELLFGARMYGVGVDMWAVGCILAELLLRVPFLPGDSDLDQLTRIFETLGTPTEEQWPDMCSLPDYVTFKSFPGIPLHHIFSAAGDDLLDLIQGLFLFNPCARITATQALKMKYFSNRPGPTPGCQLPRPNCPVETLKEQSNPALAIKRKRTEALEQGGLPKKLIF
T2 sequence (P51946 whole entry partner): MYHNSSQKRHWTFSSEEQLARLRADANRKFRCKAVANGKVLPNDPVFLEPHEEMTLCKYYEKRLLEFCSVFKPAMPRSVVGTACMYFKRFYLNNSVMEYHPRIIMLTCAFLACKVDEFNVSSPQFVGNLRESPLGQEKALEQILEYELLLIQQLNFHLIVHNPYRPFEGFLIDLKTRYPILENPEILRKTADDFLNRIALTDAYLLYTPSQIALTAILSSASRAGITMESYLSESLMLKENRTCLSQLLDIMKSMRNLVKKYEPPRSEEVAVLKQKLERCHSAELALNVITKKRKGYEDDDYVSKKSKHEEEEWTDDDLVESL
T2 sequence (P51948 whole entry partner): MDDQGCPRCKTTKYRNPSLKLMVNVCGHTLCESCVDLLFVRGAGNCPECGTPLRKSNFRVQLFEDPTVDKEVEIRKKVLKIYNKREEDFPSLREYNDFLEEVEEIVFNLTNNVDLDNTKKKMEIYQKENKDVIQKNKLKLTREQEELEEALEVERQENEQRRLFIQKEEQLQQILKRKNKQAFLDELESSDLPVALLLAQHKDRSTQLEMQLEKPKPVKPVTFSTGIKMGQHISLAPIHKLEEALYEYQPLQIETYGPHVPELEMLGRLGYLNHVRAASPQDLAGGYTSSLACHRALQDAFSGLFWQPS
Method in brief: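 LANCE Ultra TR-FRET kinase assay using a ULight-labeled peptide substrate and a Eu-labeled anti-phospho antibody, with ATP at its Km. Purified CDK/cyclin complex was added to compound after brief centrifugation.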

[6] = molecular target: T3, CDK1/Cyclin B (Homo sapiens, UniProt P06493); experiment: Enzymatic assay for CDK1 (FRET based LANCE Ultra kinase assay); type: biochemical
T3 construct: purchased Invitrogen PR4768C
T3 sequence (P06493 whole entry): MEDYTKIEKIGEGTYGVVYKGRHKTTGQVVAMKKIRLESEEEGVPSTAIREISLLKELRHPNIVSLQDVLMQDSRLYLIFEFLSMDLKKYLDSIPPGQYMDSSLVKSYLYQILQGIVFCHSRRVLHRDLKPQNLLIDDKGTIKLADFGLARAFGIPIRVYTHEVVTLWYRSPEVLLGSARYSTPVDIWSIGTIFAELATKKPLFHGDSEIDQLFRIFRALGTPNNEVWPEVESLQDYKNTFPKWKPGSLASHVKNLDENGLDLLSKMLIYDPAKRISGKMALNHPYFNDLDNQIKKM
T3 sequence (P14635 whole entry partner): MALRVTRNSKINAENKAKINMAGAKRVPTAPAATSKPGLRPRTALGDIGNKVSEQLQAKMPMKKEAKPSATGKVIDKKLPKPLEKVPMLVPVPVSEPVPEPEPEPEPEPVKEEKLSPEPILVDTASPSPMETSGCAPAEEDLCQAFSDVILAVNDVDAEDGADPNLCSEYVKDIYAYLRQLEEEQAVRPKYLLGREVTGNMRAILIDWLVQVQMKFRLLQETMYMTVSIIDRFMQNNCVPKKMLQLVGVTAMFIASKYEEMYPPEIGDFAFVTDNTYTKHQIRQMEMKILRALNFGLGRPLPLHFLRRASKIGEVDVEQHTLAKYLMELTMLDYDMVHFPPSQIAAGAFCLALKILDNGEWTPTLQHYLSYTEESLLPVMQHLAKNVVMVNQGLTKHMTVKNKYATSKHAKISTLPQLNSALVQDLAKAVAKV
Method in brief: as §1

[7] = molecular target: T4, CDK5/p25 (Homo sapiens, UniProt Q00535); experiment: Enzymatic assay for CDK5 (FRET based LANCE Ultra kinase assay); type: biochemical
T4 construct: purchased Invitrogen PR8543B
T4 sequence (Q00535 whole entry): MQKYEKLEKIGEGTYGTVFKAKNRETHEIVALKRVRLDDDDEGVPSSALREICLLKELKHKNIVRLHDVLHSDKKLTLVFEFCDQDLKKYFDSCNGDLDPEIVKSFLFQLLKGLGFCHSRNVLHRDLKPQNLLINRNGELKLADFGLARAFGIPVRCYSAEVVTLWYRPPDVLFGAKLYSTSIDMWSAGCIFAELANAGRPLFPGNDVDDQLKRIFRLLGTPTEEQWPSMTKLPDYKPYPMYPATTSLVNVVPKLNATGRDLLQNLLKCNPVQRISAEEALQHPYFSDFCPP
T4 sequence (Q15078 99-307 partner limits assumed): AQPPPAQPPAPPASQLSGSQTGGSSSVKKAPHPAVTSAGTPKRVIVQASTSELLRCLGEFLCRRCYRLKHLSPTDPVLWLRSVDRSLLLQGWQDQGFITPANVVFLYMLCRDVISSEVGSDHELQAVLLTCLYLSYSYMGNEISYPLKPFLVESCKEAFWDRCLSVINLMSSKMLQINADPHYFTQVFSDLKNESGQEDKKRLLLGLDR
Method in brief: as §1

[8] = tested on: A2780; experiment: Cellular A2780 viability assay (CellTiter-Glo, 72 hours); type: cell-based; conditions: Homo sapiens
Method in brief: (§3)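 Cells seeded at 1×10^4/well (MM.1S), 5×10^3 (OVCAR-3) or 1×10^3 (A2780), grown in RPMI-1640 with 10% FBS. After 24 h, compound added at 0.0015–10 uM, final DMSO below 0.1%, for 72 h at 37° C. Viability read by CellTiter-Glo luminescence in duplicate, with curve fitting.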

[9] = tested on: MM.1S; experiment: Cellular MM.1S viability assay (CellTiter-Glo, 72 hours); type: cell-based; conditions: Homo sapiens, MM1.S
Method in brief: as §3

[10] = tested on: RPMI-8226; experiment: Cellular RPMI-8226 viability assay (CellTiter-Glo, 72 hours); type: cell-based; conditions: Homo sapiens
Method in brief: as §2

[11] = tested on: HCT116; experiment: Cellular HCT116 viability assay (CellTiter-Glo, 72 hours); type: cell-based; conditions: Homo sapiens, HCT-116
Method in brief: as §2

[12] = read-out: CDK2 enzymatic activity (IC50 range)
[13] = read-out: CDK7 enzymatic activity (IC50 range)
[14] = read-out: CDK1 enzymatic activity (IC50 range)
[15] = read-out: CDK5 enzymatic activity (IC50 range)

IC50 [1, 12] [nM]	IC50 [2] [nM]	IC50 [3] [nM]	IC50 [4] [nM]	CDK1/CDK7: Selectivity of CDK7 inhibition over CDK1 inhibition ([5]; CDK7 over CDK1)	CDK2/CDK7: Selectivity of CDK7 inhibition over CDK2 inhibition ([5]; CDK7 over CDK2)	CDK5/CDK7: Selectivity of CDK7 inhibition over CDK5 inhibition ([5]; CDK7 over CDK5)	IC50 [5, 13] [nM]	IC50 [6, 14] [nM]	IC50 [7, 15] [nM]	IC50 [8] [nM]	IC50 [9] [nM]	IC50 [11] [nM]	SMILES	also measured
> 1000	1000 to 10000	< 1000	< 1000	A (A=greater than 200 fold)	A (A=greater than 200 fold)	A (A=greater than 200 fold)	< 100	> 1000	> 1000	≤ 1000	≤ 1000	< 1000	CC(C)c1cnn2c(N[C@@H](C)c3ccccc3-n3cc4ccccc4n3)nc(N3CCC(N)CC3)nc12 [Compound 183]	
> 1000	1000 to 10000	< 1000	< 1000	A (A=greater than 200 fold)	A (A=greater than 200 fold)	A (A=greater than 200 fold)	< 100	> 1000	> 1000	≤ 1000		< 1000	CC(C)c1cnn2c(NCc3ccccc3-c3ccc4ccccc4n3)nc(N3CCC(O)(CN)CC3)nc12 [Compound 219]	
100 to 1000	≤ 1000	< 1000	< 1000	A (A=greater than 200 fold)	A (A=greater than 200 fold)	A (A=greater than 200 fold)	< 100	> 1000	100 to 1000	≤ 1000		< 1000	CC(C)c1cnn2c(NCc3ccccc3-c3ccc4ccccc4n3)nc(NC[C@H]3CCNC[C@@H]3O)nc12 [Compound 225]	
	1000 to 10000	< 1000	< 1000							≤ 1000			CC(C)c1cnn2c(NCc3ccccc3-c3ccc4ccccc4n3)nc(NCC[C@@H](O)CN)nc12 [Compound 251]	IC50 ([1]; read-out: CDK2 enzymatic activity (IC50 activity range)): > 1000 nM; CDK1/CDK7: Selectivity of CDK7 inhibition over CDK1 inhibition ([5]; CDK1/CDK7): A (A=greater than 200 fold); CDK2/CDK7: Selectivity of CDK7 inhibition over CDK2 inhibition ([5]; CDK2/CDK7): A (A=greater than 200 fold); CDK5/CDK7: Selectivity of CDK7 inhibition over CDK5 inhibition ([5]; CDK5/CDK7): A (A=greater than 200 fold); IC50 ([5]; read-out: CDK7 enzymatic activity (IC50 activity range)): < 100 nM; IC50 ([6]; read-out: CDK1 enzymatic activity (IC50 activity range)): > 1000 nM; IC50 ([7]; read-out: CDK5 enzymatic activity (IC50 activity range)): > 1000 nM

SMILES	IC50 [1, 12] [nM]	IC50 [2] [nM]	IC50 [3] [nM]	IC50 [4] [nM]	CDK1/CDK7: Selectivity of CDK7 inhibition over CDK1 inhibition ([5]; CDK7 over CDK1)	CDK2/CDK7: Selectivity of CDK7 inhibition over CDK2 inhibition ([5]; CDK7 over CDK2)	CDK5/CDK7: Selectivity of CDK7 inhibition over CDK5 inhibition ([5]; CDK7 over CDK5)	IC50 [5, 13] [nM]	IC50 [6, 14] [nM]	IC50 [7, 15] [nM]	IC50 [8] [nM]	IC50 [9] [nM]	IC50 [11] [nM]	also measured
CC(C)c1cnn2c(NCc3ccccc3-n3cccn3)nc(-c3cccc(OC4CCNC4)c3)nc12 (racemic) [Compound 163]	100 to 1000	1000 to 10000	< 1000	< 1000	A (A=greater than 200 fold)	B (B=less than 200 fold, but greater than 20 fold)	B (B=less than 200 fold, but greater than 20 fold)	< 100	> 1000	100 to 1000	≤ 1000	≤ 1000		
CC(C)c1cnn2c(NCc3ccccc3-c3cc4cccc(NC(=O)C5CC5)c4[nH]3)nc(N3CCC(N)CC3)nc12 [Compound 144]	100 to 1000	1000 to 10000	< 1000	< 1000	B (B=less than 200 fold, but greater than 20 fold)	B (B=less than 200 fold, but greater than 20 fold)	C (C=less than 20 fold)	< 100	100 to 1000	< 100	≤ 1000		< 1000	IC50 [10]: < 1000 nM

Source: patent US11945822B2, “Pyrazolo-triazine and/or pyrazolo-pxrimidine derivatives as selective inhibitor of cyclin dependent kinase” (QURIENT CO., LTD., priority 2018, dated 2024)
